The values that follow come from ChEMBL document CHEMBL5579804, “Synthesis and kinetic evaluation of phosphomimetic inhibitors targeting type B ribose-5-phosphate isomerase from Mycobacterium tuberculosis” (Bioorg Med Chem Lett, 2024).

Data set [1] addresses T1, Ribose-5-phosphate isomerase B (Mycobacterium tuberculosis, UniProt P9WKD7).
T1 sequence (P9WKD7 whole entry): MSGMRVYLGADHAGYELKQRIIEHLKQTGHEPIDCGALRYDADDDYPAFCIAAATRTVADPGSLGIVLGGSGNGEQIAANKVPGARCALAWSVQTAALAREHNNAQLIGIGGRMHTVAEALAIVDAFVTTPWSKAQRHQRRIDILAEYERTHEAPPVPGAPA
In words: Competitive inhibition of Mycobacterium tuberculosis RPIB assessed as inhibition constant using D-ribose-5-phosphate as substrate by Cheng-Prusoff equation analysis.

Data set [2] is described as follows: Stability in Tris-HCl buffer spiked with calf serum incubated for 24 hrs. The class given is physicochemical, cell-free. The settings on record: cattle.
Data set [3] has as its target T2, Ribose-5-phosphate isomerase B (Escherichia coli (strain K12), UniProt P37351).
T2 sequence (P37351 whole entry): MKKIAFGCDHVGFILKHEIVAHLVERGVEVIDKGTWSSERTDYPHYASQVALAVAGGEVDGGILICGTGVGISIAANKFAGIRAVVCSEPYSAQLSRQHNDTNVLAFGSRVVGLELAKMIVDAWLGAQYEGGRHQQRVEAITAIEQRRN
Put plainly: Competitive inhibition of Escherichia coli RPIB assessed as inhibition constant using D-ribose-5-phosphate as substrate by Cheng-Prusoff equation analysis.

Data set [4] can be described thus: Stability in Tris-HCl buffer incubated for 24 hrs. The class given is physicochemical.
Data set [5] is described as follows: Stability in Tris-HCl buffer spiked with alkaline phosphatase incubated for 24 hrs. The class given is physicochemical.
The target of data set [6] is T3, ribose-5-phosphate isomerase (Spinacia oleracea, UniProt Q8RU73).
T3 sequence (Q8RU73 whole entry): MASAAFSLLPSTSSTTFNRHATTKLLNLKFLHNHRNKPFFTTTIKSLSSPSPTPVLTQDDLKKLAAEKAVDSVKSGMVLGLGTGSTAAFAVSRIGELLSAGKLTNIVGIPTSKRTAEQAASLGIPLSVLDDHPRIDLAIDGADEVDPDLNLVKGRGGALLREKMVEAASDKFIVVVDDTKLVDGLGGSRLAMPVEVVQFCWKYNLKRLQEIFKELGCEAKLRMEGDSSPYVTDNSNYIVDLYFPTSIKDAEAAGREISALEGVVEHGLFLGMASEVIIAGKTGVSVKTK
Put plainly: Competitive inhibition of Spinacia oleracea RPIA assessed as inhibition constant using D-ribose-5-phosphate as substrate by Cheng-Prusoff equation analysis.

Data set [7] deals with T3, ribose-5-phosphate isomerase. In words: Competitive inhibition of Spinacia oleracea RPIA using D-ribose-5-phosphate as substrate.
Data set [8] has as its target T1, Ribose-5-phosphate isomerase B. Put plainly: Competitive inhibition of Mycobacterium tuberculosis RPIB using D-ribose-5-phosphate as substrate.
Data set [9] has as its target T2, Ribose-5-phosphate isomerase B. Put plainly: Competitive inhibition of Escherichia coli RPIB using D-ribose-5-phosphate as substrate.
Data set [10] can be described thus: Stability in Tris-HCl buffer assessed as compound hydrolysis incubated for 24 hrs. In kind it is physicochemical. The conditions noted are these: read-out: Drug degradation.
Data set [11] addresses T1, Ribose-5-phosphate isomerase B. Put plainly: Competitive inhibition of Mycobacterium tuberculosis RPIB using D-ribose-5-phosphate as substrate by spectrophotometric analysis.
Data set [12] has the same target. Put plainly: Competitive inhibition of Mycobacterium tuberculosis RPIB using D-ribose-5-phosphate as substrate assessed as inhibition constant by spectrophotometric analysis.
Data set [13] deals with T2, Ribose-5-phosphate isomerase B. Put plainly: Competitive inhibition of Escherichia coli RPIB using D-ribose-5-phosphate as substrate by spectrophotometric analysis.

In the case of `O=S(=O)(O)CC[C@H]1OC(O)[C@H](O)[C@@H]1O` (some centres not stated), the Ki in [1] was 110 µM; in data set [3] it was 170 µM; in [6] it was 290 µM. The Stability entry in data set [2], in data set [4] and in data set [5] was “Stable” in each case. Moreover, the IC50 was found to be 620 µM in data set [7], 240 µM in data set [8] and 480 µM in [9].

With `CC(C(C(=O)O)C(=O)O)[C@@H](O)[C@@H](O)[C@@H](O)CCP(=O)(O)O` (some centres not stated), the Ki was 80 µM in data set [1] and greater than 750 µM in data set [6]. For the same compound, the Stability result in data set [2], in [4] and in data set [5] was “Stable” each time. The IC50 is greater than 1500 µM in data set [7], 200 µM in [8] and 1360 µM in data set [9].

Consider `CC(C(C(=O)O)C(=O)O)[C@@H](O)[C@@H](O)[C@@H](O)CCC(=O)O` (some centres not stated), for which the Ki is 290 µM in data set [1] and greater than 750 µM in [6]. Further, the Stability result in data set [2], in data set [4] and in data set [5] was “Stable” each time. For the same compound, the results for the IC50 in [7], in data set [8] and in [9] were greater than 1500 µM, 470 µM and greater than 1500 µM, respectively.

`O=S(=O)(O)OC[C@H]1OC(O)[C@H](O)[C@@H]1O` (some centres not stated): the Ki in data set [1] was determined as 40 µM; in data set [3], 90 µM; in data set [6], 180 µM. For the same compound, the Stability result is listed as “Unstable” in data set [2], “Stable” in [4] and “Stable” in data set [5]. The IC50 in data set [7] was 320 µM; in [8], 120 µM; in data set [9] it was 160 µM.

`O=C(O)C(C[C@H]1OC(O)[C@H](O)[C@@H]1O)C(=O)O` (some centres not stated): the values for the Ki in [1], in [3] and in data set [6] were 340 µM, 670 µM and 450 µM, respectively. In addition, the Stability entry in data set [2], in data set [4] and in data set [5] was “Stable” each time. The IC50 in data set [7] was found to be 980 µM; in data set [8], 810 µM; in data set [9], 1340 µM.

Turning to `O=P(O)(O)CC[C@H]1OC(O)[C@H](O)[C@@H]1O` (some centres not stated), the Stability entry in data set [2], in [4] and in data set [5] was “Stable” throughout. The figures for the IC50 in [7], in [8] and in data set [9] were greater than 3000 µM, greater than 3000 µM and 2410 µM, respectively.

For `O=P(O)(O)OC[C@H]1O[C@@H](O)[C@H](O)[C@@H]1O`, the Stability entry in data set [2] and in [5] was “Unstable” in each case. The degraded at 24 h in data set [10] stood at 10%.

`O=C(O)[C@@H](O)[C@@H](O)[C@@H](O)COP(=O)(O)O` (single isomer, unassigned): the IC50 in [11] turned out to be 31 µM; in data set [13], 1310 µM; in data set [7], 95 µM; in data set [8], 21 µM; in [9], 1400 µM. In addition, the Stability result in data set [2] and in [5] was “Unstable” each time. Moreover, the Ki in data set [12] came to 9 µM; in data set [6] it was 38 µM. Besides, in data set [10], the degraded at 24 h is 20%.
